Laboratory results taken from patent US10766884B2 (Pfizer Inc., priority 2018, dated 2020).

Legend:
CDK4/Cyclin D1 = CDK4/Cyclin D1 (Homo sapiens (Human), UniProt P11802); test: CDK4/Cyclin D1 mobility shift assay; format: biochemical; settings: activated CDK4/Cyclin D1, 3.5 mM ATP, Morrison fit; read-out: CDK4D1 Ki
CDK6 = CDK6 (Homo sapiens (Human), UniProt Q00534); test: Phospho-Serine 795 Rb ELISA assay in MV4-11 cells; format: cell-based; settings: overnight treatment, phospho-Rb S795, read-out: CDK6 pRB S795 ELISA MV4-11 cells IC50
Experimental: (§1) JEKO-1 or MV4-11 cells were seeded at 15,000 or 20,000 cells per well, respectively, in 100 μL growth media and allowed to incubate at 37° C. with 5% CO2 overnight. The following day, compounds were serially diluted from a 10 mM top dose for an 11-point 3-fold dilution curve in DMSO. Compounds were intermediately diluted 1:200 into growth media prior to diluting 1:5 on cells for final concentration 10 μM to 0.1 nM in 0.1% DMSO on cells. JEKO-1 and MV4-11 cells were treated were treated overnight, at 37° C. with 5% CO2. Cells were lysed in 100 μL/well CST lysis buffer on ice and transferred to pre-coated and blocked anti-phospho-Ser795 Rb ELISA plates for overnight incubation at 4° C. Plates were washed to remove residual, unbound cellular proteins and total Rb detection antibody added for 90 minutes at 37° C. Following wash to remove unbound total Rb antibody, the HRP tagged antibody was allowed to bind for 30 minutes at 37° C. Following wash to remove unbound HRP antibody, Glo Substrate Reagent was added and incubated protected from light for 5 to 10 minutes. Plates were read in luminescence mode and IC50 values calculated.

CDK4 = CDK4 (Homo sapiens (Human), UniProt P11802); test: Phospho-Serine 795 Rb ELISA assay in JEKO-1 cells; format: cell-based; settings: overnight treatment, phospho-Rb S795, read-out: CDK4 pRB S795 ELISA JEKO-1 cells IC50
Experimental: as §1

CDK6/Cyclin D3 = CDK6/Cyclin D3 (Homo sapiens (Human), UniProt Q00534); test: CDK6/Cyclin D3 mobility shift assay; format: biochemical; settings: activated CDK6/Cyclin D3, 3.5 mM ATP, Morrison fit; read-out: CDK6_D3 Ki
Sequence of CDK6/Cyclin D3 (Q00534 whole entry): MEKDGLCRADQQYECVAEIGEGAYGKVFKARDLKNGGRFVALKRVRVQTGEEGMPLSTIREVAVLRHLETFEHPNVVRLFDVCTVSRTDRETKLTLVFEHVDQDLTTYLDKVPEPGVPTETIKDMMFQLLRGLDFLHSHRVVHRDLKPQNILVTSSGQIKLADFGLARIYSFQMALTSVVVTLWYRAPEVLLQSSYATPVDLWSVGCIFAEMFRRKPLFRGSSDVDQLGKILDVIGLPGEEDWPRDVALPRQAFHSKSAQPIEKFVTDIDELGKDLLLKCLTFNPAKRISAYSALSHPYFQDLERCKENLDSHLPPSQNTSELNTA
Sequence of CDK6/Cyclin D3 (P30281 whole entry partner): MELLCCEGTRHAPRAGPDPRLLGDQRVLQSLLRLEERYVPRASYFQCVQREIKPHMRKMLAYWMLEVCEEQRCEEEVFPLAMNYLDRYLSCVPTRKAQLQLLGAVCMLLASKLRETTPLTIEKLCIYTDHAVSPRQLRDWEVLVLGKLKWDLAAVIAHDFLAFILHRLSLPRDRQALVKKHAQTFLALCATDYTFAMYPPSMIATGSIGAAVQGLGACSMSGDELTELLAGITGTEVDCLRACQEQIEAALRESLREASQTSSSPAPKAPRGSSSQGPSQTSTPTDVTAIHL

Sequence of CDK4 (P11802 2-303): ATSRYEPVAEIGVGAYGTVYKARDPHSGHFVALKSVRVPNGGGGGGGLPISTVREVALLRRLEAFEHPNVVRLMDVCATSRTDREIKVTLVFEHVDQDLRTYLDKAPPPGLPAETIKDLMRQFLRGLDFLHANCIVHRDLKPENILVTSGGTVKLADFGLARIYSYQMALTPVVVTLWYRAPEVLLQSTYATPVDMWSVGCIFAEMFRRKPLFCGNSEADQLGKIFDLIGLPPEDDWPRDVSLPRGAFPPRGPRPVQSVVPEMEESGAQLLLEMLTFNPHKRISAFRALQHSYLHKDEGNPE
Sequence of CDK4 (P24385 whole entry partner): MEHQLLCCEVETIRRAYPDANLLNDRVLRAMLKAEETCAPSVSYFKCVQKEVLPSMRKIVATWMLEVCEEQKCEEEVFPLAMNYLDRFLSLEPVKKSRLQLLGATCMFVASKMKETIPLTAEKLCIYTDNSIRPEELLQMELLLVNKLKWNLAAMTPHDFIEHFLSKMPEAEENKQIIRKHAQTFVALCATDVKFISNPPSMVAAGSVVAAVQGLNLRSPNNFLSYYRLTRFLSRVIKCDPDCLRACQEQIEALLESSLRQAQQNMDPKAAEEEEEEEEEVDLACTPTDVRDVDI
Sequence of CDK4/Cyclin D1 (P11802 whole entry): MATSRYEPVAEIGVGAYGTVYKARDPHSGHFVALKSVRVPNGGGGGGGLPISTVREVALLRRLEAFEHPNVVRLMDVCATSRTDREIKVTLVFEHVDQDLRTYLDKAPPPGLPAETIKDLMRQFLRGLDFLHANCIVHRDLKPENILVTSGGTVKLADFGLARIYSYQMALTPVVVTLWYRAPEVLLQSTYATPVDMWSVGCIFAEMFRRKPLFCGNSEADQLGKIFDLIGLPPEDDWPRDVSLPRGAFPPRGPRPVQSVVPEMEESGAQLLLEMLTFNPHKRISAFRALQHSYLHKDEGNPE
Sequence of CDK4/Cyclin D1 (P24385 whole entry partner): as the sequence (P24385 whole entry partner) above
Sequence of CDK6 (Q00534 whole entry): as the sequence (Q00534 whole entry) above
Sequence of CDK6 (P30281 whole entry partner): as the sequence (P30281 whole entry partner) above

| Structure (SMILES) | Ki (CDK4/Cyclin D1) | IC50 (CDK6) | IC50 (CDK4) | Ki (CDK6/Cyclin D3) |
| --- | --- | --- | --- | --- |
| CC(C)n1c(C(C)(C)N)nc2c(F)cc(-c3nc(N[C@@H]4CCOC[C@H]4O)ncc3Cl)cc21 [Example A41, 3-({4-[2-(2-aminopropan-2-yl)-4-fluoro-1-(propan-2-yl)-1H-benzimidazol-6-yl]-5-chloropyrimidin-2-yl}amino)-1,5-anhydro-2,3-dideoxy-D-threo-pentitol] | 3.1 nM | 216 nM | 92.8 nM | 48.8 nM |
| CNCc1nc2c(F)cc(-c3nc(N[C@@H]4CCOC[C@H]4O)ncc3Cl)cc2n1C(C)C [Example A44, 1,5-anhydro-3-[(5-chloro-4-{4-fluoro-2-[(methylamino)methyl]-1-(propan-2-yl)-1H-benzimidazol-6-yl}pyrimidin-2-yl)amino]-2,3-dideoxy-D-threo-pentitol] | 4.9 nM | 408 nM | 76.5 nM | 114 nM |
| CC(C)n1c(CC(C)(C)N)nc2c(F)cc(-c3nc(N[C@@H]4CCOC[C@H]4O)ncc3Cl)cc21 [Example A45, 3-({4-[2-(2-amino-2-methylpropyl)-4-fluoro-1-(propan-2-yl)-1H-benzimidazol-6-yl]-5-chloropyrimidin-2-yl}amino)-1,5-anhydro-2,3-dideoxy-D-threo-pentitol] | 1 nM | 468 nM | 65.8 nM | 52 nM |
| Cn1nc2c(F)cc(-c3nc(N[C@@H]4CCOC[C@H]4O)ncc3Cl)cc2c1C(C)(C)N [Example A49, 3-({4-[3-(2-aminopropan-2-yl)-7-fluoro-2-methyl-2H-indazol-5-yl]-5-chloropyrimidin-2-yl}amino)-1,5-anhydro-2,3-dideoxy-D-threo-pentitol] | 0.7 nM | 219 nM | 76 nM | 14.3 nM |
| CC(C)(CN)n1cnc2c(F)cc(-c3nc(N[C@@H]4CCOC[C@H]4O)ncc3Cl)cc21 [Example A51, 3-({4-[1-(1-amino-2-methylpropan-2-yl)-4-fluoro-1H-benzimidazol-6-yl]-5-chloropyrimidin-2-yl}amino)-1,5-anhydro-2,3-dideoxy-D-threo-pentitol] | 2 nM | 1530 nM | 245 nM | 55.7 nM |
| Cc1nc2c(F)cc(-c3nc(N[C@@H]4CCOC[C@H]4O)ncc3Cl)cc2n1C(C)(C)CN [Example A52, 3-({4-[1-(1-amino-2-methylpropan-2-yl)-4-fluoro-2-methyl-1H-benzimidazol-6-yl]-5-chloropyrimidin-2-yl}amino)-1,5-anhydro-2,3-dideoxy-D-threo-pentitol] | 2.7 nM | 973 nM | 202 nM | 60.1 nM |
| CC(C)n1c(CN)nc2c(F)cc(-c3nc(N[C@@H]4CCOC[C@H]4O)ncc3Cl)cc21 [Example A54, 3-({4-[2-(aminomethyl)-4-fluoro-1-(propan-2-yl)-1H-benzimidazol-6-yl]-5-chloropyrimidin-2-yl}amino)-1,5-anhydro-2,3-dideoxy-D-threo-pentitol] | 2.3 nM | 605 nM | 173 nM | 37.5 nM |
| C[C@@H](O)c1nc2c(F)cc(-c3nc(N[C@@H]4CCOC[C@H]4O)ncc3Cl)cc2n1C(C)(C)C [Example A60, 1,5-anhydro-3-[(4-{1-tert-butyl-4-fluoro-2-[(1R)-1-hydroxyethyl]-1H-benzimidazol-6-yl}-5-chloropyrimidin-2-yl)amino]-2,3-dideoxy-D-threo-pentitol] | 1.6 nM | 190 nM | 65.2 nM | 33.6 nM |
| CC(C)n1c(C(C)(C)O)nc2c(F)cc(-c3nc(N[C@@H]4CCOC[C@H]4O)ncc3F)cc21 [Example A68, 1,5-anhydro-2,3-dideoxy-3-({5-fluoro-4-[4-fluoro-2-(2-hydroxpropan-2-yl)-1-(propan-2-yl)-1H-benzimidazol-6-yl]pyrimidin-2-yl}amino)-D-threo-pentitol] | 0.7 nM | 235 nM | 48.7 nM | 14.3 nM |
| CC(C)n1c(C(F)F)nc2c(F)cc(-c3nc(N[C@@H]4CCN(S(C)(=O)=O)C[C@H]4O)ncc3Cl)cc21 [Example A69, (3R,4R)-4-({5-chloro-4-[2-(difluoromethyl)-4-fluoro-1-(propan-2-yl)-1H-benzimidazol-6-yl]pyrimidin-2-yl}amino)-1-(methanesulfonyl)piperidin-3-ol] | 0.7 nM | 238 nM | 101 nM | 4.9 nM |
| CCc1nc2c(F)cc(-c3nc(N[C@@H]4CCN(S(C)(=O)=O)C[C@H]4O)ncc3Cl)cc2n1C1COC1 [Example A71, (3R,4R)-4-({5-chloro-4-[2-ethyl-4-fluoro-1-(oxetan-3-yl)-1H-benzimidazol-6-yl]pyrimidin-2-yl}amino)-1-(methanesulfonyl)piperidin-3-ol] | 0.8 nM | 287 nM | 94.9 nM | 11.4 nM |
| Cc1cc(-c2nc(N[C@@H]3CCN(S(C)(=O)=O)C[C@H]3O)ncc2F)cc2c1nc(C)n2C(C)C [Example A79, (3R,4R)-4-({4-[2,4-dimethyl-1-(propan-2-yl)-1H-benzimidazol-6-yl]-5-fluoropyrimidin-2-yl}amino)-1-(methanesulfonyl)piperidin-3-ol] | 1.8 nM | 1140 nM | 598 nM | 17.6 nM |

The next compounds have a lower Ki (CDK4/Cyclin D1) than those just listed; values first:

| Ki (CDK4/Cyclin D1) | IC50 (CDK6) | IC50 (CDK4) | Ki (CDK6/Cyclin D3) | Structure (SMILES) |
| --- | --- | --- | --- | --- |
| 0.6 nM | 208 nM | 67.3 nM | 16.7 nM | CC(C)n1c([C@H](C)N)nc2c(F)cc(-c3nc(N[C@@H]4CCOC[C@H]4O)ncc3Cl)cc21 [Example A53, 3-[(4-{2-[(1S)-1-aminoethyl]-4-fluoro-1-(propan-2-yl)-1H-benzimidazol-6-yl}-5-chloropyrimidin-2-yl)amino]-1,5-anhydro-2,3-dideoxy-D-threo-pentitol] |
| 0.6 nM | 521 nM | 47.7 nM | 56.7 nM | CC(C)n1c(CC2(N)CCCC2)nc2c(F)cc(-c3nc(N[C@@H]4CCOC[C@H]4O)ncc3Cl)cc21 [Example A59, 3-[(4-{2-[(1-aminocyclopentyl)methyl]-4-fluoro-1-(propan-2-yl)-1H-benzimidazol-6-yl}-5-chloropyrimidin-2-yl)amino]-1,5-anhydro-2,3-dideoxy-D-threo-pentitol] |
| 0.5 nM | 66.6 nM | 27.5 nM | 8 nM | C[C@@H](O)c1nc2c(F)cc(-c3nc(N[C@@H]4CCN(S(C)(=O)=O)C[C@H]4O)ncc3Cl)cc2n1C(C)(C)C [Example A62, (3R,4R)-4-[(4-{1-tert-butyl-4-fluoro-2-[(1R)-1-hydroxyethyl]-1H-benzimidazol-6-yl}-5-chloropyrimidin-2-yl)amino]-1-(methanesulfonyl)piperidin-3-ol] |
| 0.3 nM | 346 nM | 85.5 nM | 3.5 nM | Cc1nc2c(F)cc(-c3nc(N[C@@H]4CCN(S(C)(=O)=O)C[C@H]4O)ncc3Cl)cc2n1CC(C)N (stereo partly drawn) [Example A40, (3R,4R)-4-({4-[1-(2-aminopropyl)-4-fluoro-2-methyl-1H-benzimidazol-6-yl]-5-chloropyrimidin-2-yl}amino)-1-(methanesulfonyl)piperidin-3-ol] |
| 0.3 nM | 103 nM | 33.2 nM | 5 nM | COCc1nc2c(F)cc(-c3nc(N[C@@H]4CCN(S(C)(=O)=O)C[C@H]4O)ncc3Cl)cc2n1C(C)C [Example A75, (3R,4R)-4-({5-chloro-4-[4-fluoro-2-(methoxymethyl)-1-(propan-2-yl)-1H-benzimidazol-6-yl]pyrimidin-2-yl}amino)-1-(methanesulfonyl)piperidin-3-ol] |
| 0.3 nM | 126 nM | 61.1 nM | 4.9 nM | CC(C)(C)n1cnc2ccc(-c3nc(N[C@@H]4CCN(S(C)(=O)=O)C[C@H]4O)ncc3F)cc21 [Example A77, (3R,4R)-4-{[4-(1-tert-butyl-1H-benzimidazol-6-yl)-5-fluoropyrimidin-2-yl]amino}-1-(methanesulfonyl)piperidin-3-ol] |
| 0.2 nM | 33.5 nM | 11.4 nM | 2.6 nM | C[C@H](O)c1nc2c(F)cc(-c3nc(N[C@@H]4CCOC[C@H]4O)ncc3Cl)cc2n1C(C)(C)C [Example A61, 1,5-anhydro-3-[(4-{1-tert-butyl-4-fluoro-2-[(1S)-1-hydroxyethyl]-1H-benzimidazol-6-yl}-5-chloropyrimidin-2-yl)amino]-2,3-dideoxy-D-threo-pentitol] |
| 0.1 nM | 73.9 nM | 26.4 nM | 1.8 nM | Cc1nc2ccc(-c3nc(N[C@@H]4CCN(S(C)(=O)=O)C[C@H]4O)ncc3F)cc2n1C(C)(C)C [Example A78, (3R,4R)-4-{[4-(1-tert-butyl-2-methyl-1H-benzimidazol-6-yl)-5-fluoropyrimidin-2-yl]amino}-1-(methanesulfonyl)piperidin-3-ol] |
